Data on four compounds can be found in patent US20160367457A1, “CAPRYLOYL ALANINE ETHYLESTER AS A PENETRATION ENHANCER” (BASF SE, priority 2014, published 2016).

Each structure is given as a SMILES string. Where two headings read alike, the source gives them in different places.

Data set [1] is described as follows: Penetration study with 5% enhancer incorporated into W/O formulation. As for the experimental part:
(§1) Permeation study was performed in four fold determination with the test and the reference item at human skin. For the transport studies the dermatomized skin was cut with a punch of 24 mm diameter and the thickness of the skin was measured at five points for each sample. Subsequently the skin pieces were fastened on cylindrical glass Franz cells which are employed as diffusion chambers. The lower (acceptor) chamber has a volume of approximately 12 ml, while the volume of the upper (donor) chamber is variable. The skin was inserted with the dermal layer facing downwards so that the skin's corneous layer is uppermost.
PE2 (C12) which is solid at room temperature, was gently melted in a water bath (at 35 to 40° C.) and applied as liquid. After 30 min of incubation the liquid penetration enhancers were gently removed with cotton balls. In the case of PE2 which solidified on the skin, the solid film was removed with a pincer. Thereafter 50 μl of the formulations were applied at the surface of the skin. The acceptor medium was thermostated at 32° C. and continuously stirred at a rate of 400 rpm. The diffusion area of skin was approximately 1.8 cm^2. Permeation through the skin into the acceptor medium was monitored over a period of 24 hours. The acceptor medium was sampled at 4 different time points, after 1, 3, 6 and 24 hours, by withdrawing samples of 200 μl. After withdrawing a sample volume, the acceptor medium was refilled with pre-warmed KRB/KRB+2% BSA. The concentration of active ingredients in the acceptor chamber was corrected to take the dilution introduced by sampling into account. Taken samples were mixed with 210 μl or 500 μl of scintillation cocktail for at least 1 hour at 200 rpm and radioactivity measured by scintillation counting.
The described study was partly repeated in a similar experimental setup with three test substances to act as skin permeation enhancer when incorporated into the cosmetic formulation and not applied directly to the skin: • Dimethyl isosorbide (DMI) a well-known penetration enhancer—used in cosmetics • Penetration Enhancer 1 (PE1)—capryloyl alanine ethylester • Penetration Enhancer 2 (DGME)—prior art penetration enhancer Transcutol (Gattefossee), diethylene glycol mono ethyl ether
Formulation 1 (W/O formulation) served as a basic formulation and as a reference without any penetration enhancer. This time the skin was not pre-incubated with the selected penetration enhancers (DMI, PE1 and DGME), but 5% of the respective penetration enhancer was incorporated into formulation 1 and the resulting formulations were spiked once again with radiolabeled ^3H-caffeine or ^3H-Vitamin E acetate.

The nature of data set [2]: Penetration study with the enhancer applied directly to the skin (preincubation), Franz cells, radiolabeled markers from W/O formulation 1. On the procedure: The aim of the present study was to determine the potency of three test substances (one being the closest prior art penetration enhancer) to act as skin permeation enhancer in cosmetic formulations: • Dimethyl isosorbide (DMI) a well-known penetration enhancer—used in cosmetics • Penetration Enhancer 1 (PE1)—capryloyl alanine ethylester • Penetration Enhancer 2 (PE2)—closest prior art molecule dodecyloyl alanine ethylester
The tests were performed by an independent test institute specialized in penetration testing. […] The skin was pre-incubated with the selected penetration enhancers (DMI, PE1 and PE2) and after incubation time of 30 min formulation was removed from the skin surface and formulation 1 spiked with radiolabeled ^3H-caffeine or ^3H-Vitamin E acetate was applied.
The impact of the three penetration enhancers on the skin absorption rate of caffeine and Vitamin E acetate (representative hydrophilic and lipophilic cosmetic actives, respectively) incorporated into a w/o formulation was investigated. Radiolabeled caffeine and Vitamin E acetate were used as markers. The in vitro skin permeation studies were performed with dermatomized human skin (approximately 500 μm in thickness) over a period of 24 h in triplicate. Samples from the acceptor compartment were taken at four sampling times (1, 3, 6 and 24 h) to screen the permeation enhancement effect.
The transdermal absorption of the test compounds ^3H-caffeine and ^3H-Vitamin E acetate was monitored by measuring the amount of radio labeled substances in the acceptor medium.
The test compounds were quantified by liquid scintillation counting.
In accordance to the SCCP Guidelines of the European Commission the excised human skin from surgery is an appropriate in vitro test system to simulate the permeation and penetration processes of a compound into and across human skin under in vivo conditions.
For the penetration study, the human skin (female abdomen skin) of one donor which was dermatomized to a thickness of 500±100 μm was used and tests were conducted in triplicate. Full-thickness skin was prepared from the skin biopsies and stored at −20° C. […] The skin was used immediately after thawing. Repeated freeze-thaw cycles were avoided.
Formulation 1 (without penetration enhancer) was spiked with radiolabeled ^3H-caffeine (specific activity: 60 Ci/mmol) and ^3H-Vitamin E acetate (specific activity: 50 Ci/mmol) and applied as control directly to the skin. The radio labeled samples were prepared as follows: Formulation 1 was spiked with either radiolabeled ^3H-caffeine or ^3H-Vitamin E acetate resulting in 2960000 cpm/50 μl or 1264557 cpm/50 μl, respectively. One of the three different penetration enhancers (DMI, PE1 and PE2) was applied to the skin prior to the application of the radioactively spiked W/O-formulation.
Krebs Ringer buffer (KRB, pH=7.4) was prepared according to an internal standard operation procedure. KRB was used as the acceptor medium for ^3H-caffeine. For ^3H-Vitamin E acetate, KRB supplemented with 2% bovine serum albumin (BSA) was used as the acceptor medium. Solutions of ^3H-caffeine and ^3H-Vitamin E acetate were used to validate the detection method and to assess linearity.
as §1

Data set [3] in a line: Hansen Solubility Parameters (HSP) distance to the stratum corneum. Format: physicochemical. From the text: Capryloyl alanine ethyl ester turned out to have a smaller Hansen Solubility Parameters (HSP) distance to the stratum corneum than well-known and established references like DMI and ethyldiethylenglycol which indicates a good potential as skin penetration enhancer. Hansen Solubility Parameters are a key indicator for good partitioning into the stratum corneum provided the molecule is liquid at RT and has a small enough molecular volume.

The nature of data set [4]: Penetration of the penetration enhancer itself through the skin. Format: in vitro ADME. From the text: Furthermore, capryloyl-alanine ethylester can be metabolized in the skin thereby contributing to an improved toxicological profile.
Setting [5] is: after 24 hours, skin pre-incubated 30 min with 20 μl enhancer, then W/O formulation 1 with 3H-caffeine, n = 3.
[6] abbreviates: after 24 hours, versus reference without enhancer, preincubation, n = 3.
[7] abbreviates: at 24 hours, skin pre-incubated 30 min with 20 μl enhancer, then W/O formulation 1 with 3H-Vitamin E acetate, n = 3.
[8] abbreviates: at 24 hours, versus reference without enhancer, preincubation, n = 3.
Where [9] appears, read: preincubation, 24 h detection time.
[10] abbreviates: preincubation, caffeine in w/o formulation, 24 h.

Take `CCOCCOCCO` [DGME, diethylene glycol mono ethyl ether]: in data set [1], the “Effect on transport of caffeine compared to the reference formulation without any enhancer” value is “slightly enhanced the transport”. Also, in data set [1] (human, 24 h, 5 %, pH 7.4), the “Average cumulative transport of 3H-caffeine” value worked out at 278.404 cpm/cm2 and the “Enhancement Ratio for 3H-caffeine” value amounted to 1.12.

As for `CO[C@H]1CO[C@H]2[C@@H]1OC[C@H]2OC` [DMI, Dimethyl isosorbide], the “Average cumulative transport of 3H-caffeine” value came out at 212.435 cpm/cm2 in data set [1] (at 24 hours, 5% enhancer incorporated into w/o formulation, n = 4) and 203120 dpm/cm^2 in data set [2] (setting [5]). For the same compound, the “Enhancement Ratio for 3H-caffeine” value in data set [1] (at 24 hours, 5% enhancer incorporated, versus reference formulation 1 without enhancer, n = 4) is 0.86; in data set [2] (setting [6]) it was 2.40. For the same compound, the “Effect on transport of caffeine compared to the reference formulation without any enhancer” value in data set [1] (enhancer incorporated into W/O formulation) was “slightly decreased transport”. Besides, the “Average cumulative transport of 3H-Vitamin E acetate” value in data set [2] (setting [7]) worked out at 2578 dpm/cm^2. The “Enhancement Ratio for 3H-Vitamin E acetate” value in data set [2] (setting [8]) is listed as 1.01. In addition, the “Effect on transport of Vitamin E acetate” value in data set [2] (setting [9]) is given as “only a slight penetration enhancing effect”. Also, in data set [2] (setting [10]), the “Caffeine transport compared to the control without any penetration enhancer” value is “around twice”.

Turning to `CCCCCCCC(=O)N[C@@H](C)C(=O)OCC` [PE1, capryloyl alanine ethylester], the “Effect on transport of caffeine compared to the reference formulation without any enhancer” value in data set [1] is recorded as “most effective permeation enhancer”. Moreover, in data set [1] (human, 24 h, 5 %, pH 7.4), the “Average cumulative transport of 3H-caffeine” value is on record as 342.593 cpm/cm2 and the “Enhancement Ratio for 3H-caffeine” value stood at 1.38. Also, the “HSP distance to the stratum corneum compared with DMI and ethyldiethylenglycol” value in data set [3] was “smaller”. In data set [2], the “Effect on transport of Vitamin E acetate” value is “only a slight penetration enhancing effect”. Further, in data set [2] (female, human, 24 h, pH 7.4), the “Average cumulative transport of 3H-Vitamin E acetate” value was 2712 dpm/cm^2, the “Average cumulative transport of 3H-caffeine” value is listed as 414024 dpm/cm^2, the “Caffeine transport compared to the control without any penetration enhancer” value is “approximately 5 times” and the “Enhancement Ratio for 3H-Vitamin E acetate” value amounted to 1.06. In data set [2] (female, human, 24 h, pH 7.4), the “Enhancement Ratio for 3H-caffeine” value is 4.89 and the “Penetration of Vitamin E acetate with PE1 in comparison to PE2” value amounted to 1.5 fold. In data set [4], the “Penetration of the enhancer itself through the skin compared with DMI” value was “lesser degree than DMI”.

Consider `CCCCCCCCCCCC(=O)N[C@@H](C)C(=O)OCC` [PE2, dodecyloyl alanine ethylester], for which, in data set [2] (setting [5]), the “Average cumulative transport of 3H-caffeine” value amounted to 262929 dpm/cm^2. The “Enhancement Ratio for 3H-caffeine” value in data set [2] (setting [6]) was 3.11. The “Average cumulative transport of 3H-Vitamin E acetate” value in data set [2] (setting [7]) was 1814 dpm/cm^2. Also, the “Enhancement Ratio for 3H-Vitamin E acetate” value in data set [2] (setting [8]) was 0.70. Moreover, the “Effect on transport of Vitamin E acetate” value in data set [2] (setting [9]) is “reduced the transport”. In addition, the “Caffeine transport compared to the control without any penetration enhancer” value in data set [2] (setting [10]) is “approximately 3 times”.
